In US11680298B2, “Method of identifying risk of cancer and therapeutic options” (Agency for Science, Technology and Research, priority 2016, dated 2023):

Legend:
EL12-58 PDX tumours = assay: Neoadjuvant breast cancer PDX model of tumour recurrence; format: in vivo, NOD-SCID mice; conditions: after paclitaxel-induced regression and surgery; 20 mg/kg paclitaxel, 150 mg/kg pacritinib or both
JAK2 = molecular target: T1, JAK2 (Homo sapiens, UniProt O60674); assay: Western blot of phospho-JAK2 in breast cancer cells and patient-derived tumourspheres; format: cell-based; conditions: patient-derived tumourspheres, IL-1 treatment
T1 construct: endogenous in cells; host or cells: MB468 and MB231 cells; PDX-derived tumourspheres
Source text: (§1) All immunoblots shown in this specification represent at least two independent experiments. In brief, cells were washed with PBS and lysed in RIPA buffer supplemented with protease and phosphatase inhibitors and further sonicated using an XL2000 Microson Ultrasonice Processor (Misonix). Equal amounts of protein extract were separated on SDS-polyacrylamided gels and transferred to PVDF membranes. Membranes were further blocked with 5% milk or BSA, and then probed with the following antibodies: anti-IRAK1 was purchased from Santa Cruz Biotechnology (Santa Cruz, Calif.; sc-7883), anti-phospho-IRAK1 (T209) was purchased from Assay Biotech (Sunnyvale, Calif.; A1074), anti-JAK2 (Danvers, Mass.; #3230) and anti-phospho-JAK2 ([…]) (Danvers, Mass.: #3774) were purchased from Cell Signaling Technology, anti-actin was purchased from Sigma Aldrich CA; A5441). For protein extraction of xenograft tumours, snap frozen samples were resuspended in RIPA buffer supplemented with protease and phosphatase inhibitors and homogenized with QIAGEN TissueLyzer II as described by the manufacturer, followed by immunoblotting as described above.

IRAK1 [1] = molecular target: T2, IRAK1 (Homo sapiens, UniProt P51617); assay: Western blot of phospho-IRAK1 in breast cancer cells and patient-derived tumourspheres; format: cell-based; parameters: endogenous in cells; host or cells: MB468 and MB231 cells; PDX-derived tumourspheres
Description: Recombinant IL-1p (Cat no: 200-01B) was purchased from Peprotech (Rocky Hill, N.J.). Recombinant S100A7 (Cat no: pro-149), S100A8 (Cat no: pro-800) and S100A9 (Cat no: pro-814), were purchased from ProSpec (East Brunswick, N.J.). Cells were treated with recombinant proteins at stated concentration for 20 min before harvesting for western blot. Paclitaxel (Cat no: P-9600) was purchased from LC Lab (Woburn, Mass.).
as §1

IRAK1 [2] = molecular target: T2, IRAK1; assay: as above; format: cell-based; parameters: endogenous in cells; host or cells: MB468 and MB231 cells; PDX-derived tumourspheres; conditions: MCF10A, long-term treatment with recombinant protein for 10 days
[3] = system: K239S mutant cells (MB436, MB468); assay: Tumoursphere formation of K239S mutant IRAK1 cells with recombinant protein rescue; format: cell-based; conditions: recombinant protein added to culture medium of K239S mutant IRAK1 cells
Description: Mammosphere Formation Assay PDX-derived tumoursphere cells were trypsinized and passed through 40 μm cell strainer to achieve single cell suspensions. 3×10^4 cells were seeded in 6-well ultra-low attachment plates (Corning, N.Y.; CLS3471) in serum-free DMEM/F12 supplemented with N2 and B27 (Gibco, Grand Island, N.Y.), 20 ng/ml epidermal growth factor (MACS, Auburn, Calif.), 20 ng/ml basic fibroblast growth factor (MACS, Auburn, Calif.), 0.2 μM Thiazovivin ([…] Technologies, Vancouver, BC) and penicillin/streptomycin (Gibco, Carlsbad, Calif.). For breast cancer cell lines and MCF10A cell line, 3×10^4 cells were seeded in 6-well ultra-low attachment plates in Mammocult medium (Stem Cell Technologies, Vancouver, BC, Canada), supplemented with fresh hydrocortisone (0.5 μg/ml) and heparin (1:500). Mammospheres were maintained at 37° C. with 5% CO2 and topped up with medium every 3 days. After 7-9 days, mammospheres were stained with INT (2-(4-iodophenyl)-3-(4-nitrophenyl)-5-phenyl-2H-tetrazolium chloride, Sigma-Aldrich) and quantified. Imaging and quantification were done using GelCount apparatus and associated software (Oxford Optronix, Abingdon, UK). […] Cell Proliferation Assay […]

MCF10A = assay: Mammosphere formation assay, MCF10A; format: cell-based; conditions: long-term treatment with recombinant protein for 10 days
Description: (§2) Mammosphere Formation Assay PDX-derived tumoursphere cells were trypsinized and passed through 40 μm cell strainer to achieve single cell suspensions. 3×10^4 cells were seeded in 6-well ultra-low attachment plates (Corning, N.Y.; CLS3471) in serum-free DMEM/F12 supplemented with N2 and B27 (Gibco, Grand Island, N.Y.), 20 ng/ml epidermal growth factor (MACS, Auburn, Calif.), 20 ng/ml basic fibroblast growth factor (MACS, Auburn, Calif.), 0.2 μM Thiazovivin ([…] Technologies, Vancouver, BC) and penicillin/streptomycin (Gibco, Carlsbad, Calif.). For breast cancer cell lines and MCF10A cell line, 3×10^4 cells were seeded in 6-well ultra-low attachment plates in Mammocult medium (Stem Cell Technologies, Vancouver, BC, Canada), supplemented with fresh hydrocortisone (0.5 μg/ml) and heparin (1:500). Mammospheres were maintained at 37° C. with 5% CO2 and topped up with medium every 3 days. After 7-9 days, mammospheres were stained with INT (2-(4-iodophenyl)-3-(4-nitrophenyl)-5-phenyl-2H-tetrazolium chloride, Sigma-Aldrich) and quantified. Imaging and quantification were done using GelCount apparatus and associated software (Oxford Optronix, Abingdon, UK). […] Cell Proliferation Assay

[4] = system: tumourspheres from both cell lines and patient-derived samples; assay: S100A8/S100A9 recombinant protein rescue of pacritinib-treated tumourspheres; format: cell-based, human; conditions: recombinant protein 10 ng/ml added to culture medium; pacritinib 2.5 μM or 1 μM (method)
Description: as §2

[5] = MB231 cells, recombinant protein as low as 1 ng/ml

T2 sequence (P51617 whole entry): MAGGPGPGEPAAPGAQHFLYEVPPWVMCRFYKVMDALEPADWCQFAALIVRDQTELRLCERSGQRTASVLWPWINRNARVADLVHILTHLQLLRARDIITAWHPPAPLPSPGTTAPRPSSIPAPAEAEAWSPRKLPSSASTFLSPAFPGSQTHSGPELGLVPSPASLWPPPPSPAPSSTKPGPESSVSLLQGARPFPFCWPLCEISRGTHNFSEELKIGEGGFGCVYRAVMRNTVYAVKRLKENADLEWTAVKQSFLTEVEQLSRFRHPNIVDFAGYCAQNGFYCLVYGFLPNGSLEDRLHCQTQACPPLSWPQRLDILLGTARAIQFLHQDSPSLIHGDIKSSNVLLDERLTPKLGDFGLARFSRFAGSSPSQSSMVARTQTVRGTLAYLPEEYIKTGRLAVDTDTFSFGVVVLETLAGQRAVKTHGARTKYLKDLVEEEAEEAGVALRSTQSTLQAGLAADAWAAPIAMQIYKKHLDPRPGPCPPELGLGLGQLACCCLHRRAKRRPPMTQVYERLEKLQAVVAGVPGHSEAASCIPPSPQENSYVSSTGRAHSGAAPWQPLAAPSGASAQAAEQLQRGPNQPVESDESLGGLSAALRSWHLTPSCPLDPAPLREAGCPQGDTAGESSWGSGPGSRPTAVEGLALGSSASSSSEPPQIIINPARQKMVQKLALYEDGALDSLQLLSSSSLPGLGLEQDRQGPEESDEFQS
T1 sequence (O60674 whole entry): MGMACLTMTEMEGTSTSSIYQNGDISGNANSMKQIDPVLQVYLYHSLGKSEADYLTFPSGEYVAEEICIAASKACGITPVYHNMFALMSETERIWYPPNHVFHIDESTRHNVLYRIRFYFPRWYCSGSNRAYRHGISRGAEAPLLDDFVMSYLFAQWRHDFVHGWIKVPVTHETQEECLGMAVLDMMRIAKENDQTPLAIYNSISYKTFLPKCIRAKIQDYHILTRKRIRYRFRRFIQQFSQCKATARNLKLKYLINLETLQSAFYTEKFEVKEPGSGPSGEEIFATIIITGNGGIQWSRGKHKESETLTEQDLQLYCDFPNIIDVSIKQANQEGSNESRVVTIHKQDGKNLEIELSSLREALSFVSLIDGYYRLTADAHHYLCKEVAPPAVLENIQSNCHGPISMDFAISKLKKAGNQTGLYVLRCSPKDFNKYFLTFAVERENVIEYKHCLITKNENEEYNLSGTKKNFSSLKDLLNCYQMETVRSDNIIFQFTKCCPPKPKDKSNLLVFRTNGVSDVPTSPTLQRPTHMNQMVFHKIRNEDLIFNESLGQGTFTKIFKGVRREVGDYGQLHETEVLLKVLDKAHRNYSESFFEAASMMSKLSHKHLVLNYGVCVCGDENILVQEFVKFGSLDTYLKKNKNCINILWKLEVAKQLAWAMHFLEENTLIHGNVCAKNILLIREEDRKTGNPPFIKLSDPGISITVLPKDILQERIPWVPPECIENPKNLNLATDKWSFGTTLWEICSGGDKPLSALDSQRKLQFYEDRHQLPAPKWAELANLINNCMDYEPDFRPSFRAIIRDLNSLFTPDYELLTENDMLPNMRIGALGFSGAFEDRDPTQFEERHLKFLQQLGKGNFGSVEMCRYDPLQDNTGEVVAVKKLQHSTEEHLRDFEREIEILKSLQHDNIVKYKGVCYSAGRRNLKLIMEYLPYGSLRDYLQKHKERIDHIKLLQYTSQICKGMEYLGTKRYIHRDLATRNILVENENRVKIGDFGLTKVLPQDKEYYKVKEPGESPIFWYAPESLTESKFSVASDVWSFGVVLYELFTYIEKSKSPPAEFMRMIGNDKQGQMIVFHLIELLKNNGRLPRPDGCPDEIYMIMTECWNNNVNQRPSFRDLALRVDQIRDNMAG

Row | JAK2 phosphorylation (JAK2) | IRAK1 phosphorylation (IRAK1 [2]) | IRAK1 phosphorylation (IRAK1 [1]; [5]) | Molecule | tumour regrowth after surgical removal of residual tumour (EL12-58 PDX tumours) | IRAK1 phosphorylation (IRAK1 [1]; patient-derived tumourspheres, IL-1 treatment) | rescue of tumoursphere growth [3] | mammosphere formation (MCF10A) | rescue of pacritinib-induced tumoursphere growth inhibition [4]
1 |  |  |  | CC(=O)O[C@H]1C(=O)[C@@]2(C)[C@H]([C@H](OC(=O)c3ccccc3)[C@]3(O)C[C@H](OC(=O)[C@H](O)[C@@H](NC(=O)c4ccccc4)c4ccccc4)C(C)=C1C3(C)C)[C@]1(OC(C)=O)CO[C@@H]1C[C@@H]2O [paclitaxel] | slowed down |  |  |  | 
2 | remarkably induced JAK2 phosphorylation |  |  | IL-1p: Recombinant IL-1p (Cat no: 200-01B) purchased from Peprotech |  | did not have an obvious effect on IRAK1 phosphorylation |  |  | 
3 |  | increased IRAK1 phosphorylation | able to induce IRAK1 phosphorylation | S100A8: Recombinant S100A8 protein purchased from ProSpec (Cat no: pro-800) |  |  | able to rescue the tumoursphere growth | increased mammosphere formation | effectively rescued pacritinib-induced growth inhibition
4 |  | increased IRAK1 phosphorylation | able to induce IRAK1 phosphorylation | S100A9: Recombinant S100A9 protein purchased from ProSpec (Cat no: pro-814) |  |  | able to rescue the tumoursphere growth | increased mammosphere formation | effectively rescued pacritinib-induced growth inhibition
5 |  |  | able to induce IRAK1 phosphorylation | S100A7: Recombinant S100A7 protein purchased from ProSpec (Cat no: pro-149) (protein, UniProt P31151 2-101, looked up) Protein S100-A7: SNTQAERSIIGMIDMFHKYTRRDDKIEKPSLLTMMKENFPNFLSACDKKGTNYLADVFEKKDKNEDKKIDFSEFLSLLGDIATDYHKQSHGAAPCSGGSQ |  |  |  |  | 
